According to patent publication US20260001928A1 (CORTERIA PHARMACEUTICALS, priority 2022, published 2026):
*1 amine or outer side, *2 acyl side, *3 side chain or, on linkers, in order; H or OH if unused. Where a SMILES comes first, the peptide text is derived from it. Side-chain parts run from the residue outwards. [ ]: non-standard residue; d: D form. The star is where a group is joined. C18 diacid = O=C(O)CCCCCCCCCCCCCCCCC(=O)*; γGlu = O=C(O)[C@H](CCC(=O)[*:2])N[*:1]; αMeL = CC(C)C[C@](C)(N)C(=O)O; AEEA = NCCOCCOCC(=O)O; Aib = CC(C)(N)C(=O)O

How the values were obtained:
[1] = molecular target: T1, human CRF2a receptor (Homo sapiens, UniProt Q13324); assay: Activity at human CRF2a receptor, cAMP functional assay in TeloHEAC cells; format: cell-based; details: TeloHEAC cells stably expressing human CRF2a receptor, relative to urocortin 2 (100 nM = 100%)
T1 construct: expressed in transfected cells; host or cells: TeloHEAC cells
T1 sequence (Q13324 1-411): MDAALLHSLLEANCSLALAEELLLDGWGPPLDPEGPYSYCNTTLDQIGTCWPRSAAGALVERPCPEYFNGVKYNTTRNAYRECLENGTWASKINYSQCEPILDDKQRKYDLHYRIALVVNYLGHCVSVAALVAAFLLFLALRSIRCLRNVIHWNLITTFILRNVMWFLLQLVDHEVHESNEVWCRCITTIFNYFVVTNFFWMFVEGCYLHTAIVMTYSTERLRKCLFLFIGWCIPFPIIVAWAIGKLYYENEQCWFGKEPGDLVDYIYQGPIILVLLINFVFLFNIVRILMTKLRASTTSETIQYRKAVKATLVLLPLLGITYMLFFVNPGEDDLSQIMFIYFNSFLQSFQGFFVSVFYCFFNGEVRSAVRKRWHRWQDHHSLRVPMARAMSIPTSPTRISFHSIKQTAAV
Method in brief: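 cAMP accumulation was measured by HTRF 665/620 nm ratio after 30 min at 37° C compound exposure (16 twofold dilutions) of CRF2a-expressing TeloHEAC cells, 10000/well, in HEPES-buffered HBSS plus IBMX. Activity was normalised to urocortin 2 at 100 nM (100%), and EC50 was the concentration giving half-maximal activation.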

[2] = In vitro plasma stability, rat plasma; format: in vitro ADME; set-up: remaining at 2 h: dose or concentration left out as unconfirmed; details: male, Sprague Dawley, plasma; Rat PLM, 37° C.
Procedure: In vitro plasma metabolic stability was studied in male Sprague Dawley rats and human. Test compounds were incubated at 3 M for 2 hours at 37° C. At each time point (0, 0.25, 1 and 2 h), samples were prepared for analysis by means of a single step protein precipitation technique by adding 150 μL of ethanol, 0.1% formic acid to 50 μL aliquots of plasma. Samples were mixed by vortex for homogeneity and then subjected to centrifugation at 14000 rpm for 15 min. The supernatant (100 μL) was collected, diluted with 100 μL of water, 0.1% formic acid and analyzed by LC-HRMS (TripleTOF 6600+, AB Sciex). For each test compound, the area ratios at each time point were compared to the 0 h area ratio and converted to a percentage remaining.

[3] = Chemical stability in buffer (pH 7.4 / pH 4.5), % purity loss; format: physicochemical; details: 100 mM phosphate buffer pH 7.4; 40° C. vs 5° C.; 14 or 28 days
Method in brief: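 Compounds dissolved at 10 mg/mL target in 100 mM phosphate (pH 7.4) or 100 mM acetate (pH 4.5) buffer for 1 h at room temperature, then centrifuged. Diluted supernatant stored at 5 °C or 40 °C for 14 or 28 days; % purity loss by LC-UV.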

[4] = In vitro plasma stability, human plasma; format: in vitro ADME; set-up: dose or concentration left out as unconfirmed; details: Human PLM, 37° C.
[5] = Pharmacokinetics in male Sprague Dawley rats after subcutaneous administration; format: in vivo; details: plasma, rat, SC, 0.1 mg/kg
[6] = system: Sprague Dawley rats; assay: Effect on systolic blood pressure, telemetry in Sprague Dawley rats; format: in vivo, rat; details: 0.1 mg/kg SC
Method in brief: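 Sprague Dawley rats with abdominal-aorta telemetry catheters, recovered ≥10 days, received 0.1 mg/kg SC of compound or vehicle. Systolic pressure recorded 1 h pre-dose as baseline, then continuously up to 48 hours, expressed as % change from baseline; duration of action is last time point with a BP effect (n=2).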

[7] = In vitro subcutaneous tissue supernatant (SCts) stability and metabolite identification, rat; format: in vitro ADME; set-up: remaining at 2 h: dose or concentration left out as unconfirmed; details: male, Sprague Dawley; rat subcutaneous tissue supernatant (SCts), 37° C, 2 h

With `CC[C@H](C)[C@H](NC(C)=O)C(=O)N[C@H](C(=O)N[C@@H](CC(C)C)C(=O)N[C@@H](CO)C(=O)N[C@@H](CC(C)C)C(=O)N[C@@H](CC(=O)O)C(=O)N[C@@H](C(=O)N1CCC[C@H]1C(=O)N[C@H](C(=O)N[C@@H](CCCCN)C(=O)N[C@@](C)(CC(C)C)C(=O)N[C@@H](CCCCNC(=O)COCCOCCNC(=O)COCCOCCNC(=O)CC[C@H](NC(=O)CCCCCCCCCCCCCCCCC(=O)O)C(=O)O)C(=O)N[C@@H](CCCCN)C(=O)N[C@H](C(=O)N[C@@H](CC(C)C)C(=O)N[C@@H](CC(C)C)C(=O)N[C@@H](CCC(=O)O)C(=O)N[C@@H](CCC(N)=O)C(=O)N[C@@H](CCC(=O)O)C(=O)N[C@@H](CCCCN)C(=O)N[C@@H](CCC(N)=O)C(=O)N[C@@H](CCCCN)C(=O)N[C@@H](CCCCN)C(=O)N[C@@H](CCC(N)=O)C(=O)N[C@@H](CCCNC(=N)N)C(=O)N[C@@H](CCC(=O)O)C(=O)N[C@@H](CCC(N)=O)C(=O)N[C@@H](C)C(=O)N[C@@H](CCC(=O)O)C(=O)N[C@H](C(=O)N[C@@H](CC(N)=O)C(=O)NC(C)(C)C(=O)N[C@@H](CCC(N)=O)C(=O)N[C@H](C(=O)N[C@@H](CC(C)C)C(=O)N[C@@H](C)C(=O)N[C@@H](CCC(N)=O)C(=O)N[C@H](C(N)=O)C(C)C)[C@@H](C)CC)[C@@H](C)O)[C@@H](C)CC)[C@@H](C)CC)C(C)C)C(C)C` [compound 110] (Ac-IVLSLD[dV]PIK[αMeL]K([AEEA-AEEA-γGlu-C18 diacid])KILLEQEKQKKQREQAETN[Aib]QILAQV-NH2) the EC50 [1] was 0.3 nM, the remaining at 2 h [2] was 95% and the “Buffer stability pH 7.4 % purity loss” value [3] was 0/nd ^ %. It also gave a remaining at 2 h [4] of 97%, an AUC(0-t) [5] of 4430 ng·h/mL and a Cmax [5] of 291 ng/mL. For the same compound, the “Systolic blood pressure (Mean) % change from baseline, 8 h” value ([6]; 8 h, n=2) was −19%, the “Systolic blood pressure (Mean) % change from baseline, 12 h” value ([6]; 12 h, n=2) was −10% and the “Systolic blood pressure (Mean) % change from baseline, 24 h” value ([6]; 24 h, n=2) was −6%. For the same compound, the Duration of action ([6]; last time point with an effect on BP still observed) was 20 h and the remaining at 2 h [7] was 77%.
